Experimental data: patent US6177253A, “Screening methods for the identification of anti-HIV compounds employing a cyclosporine-specific monoclonal antibody that cross-reacts with HIV-1 p24” (priority 1998, dated 2001)

Columns and labels:
Assay type in all cases: binding, BALB/c mice
[1] = tested on: C4 2.2; assay: ELISA inhibition by singly modified Cs-derivatives, McAb C4 2.2; settings: group V; McAb binds selectively to Thr^2 -Cs-BSA coating
Protocol: (§1) A second ELISA Procedure used conjugates of D-Lys^8 -Cs-BSA and Thr^2 -Cs-BSA for coating (Queeniaux et al., 1987b). An indirect detection system consisting of rabbit anti-mouse Ig followed by alkaline phosphates-conjugated goat anti-rabbit IgG was performed as previously described (Queenlaux et al., 1987b).
(§2) The binding of the 22 McAbs to these two Cs-BSA conjugates was also found to correlate well with their fine specificity patterns, as characterized with a set of 28-36 Cs derivatives. Typical ELISA curves showing McAb binding either to D-Lys^8 -Cs-BSA (panel A) or to Thr^2 -Ca-BSA (panel B) and inhibited by Cs or Cs derivatives are shown in FIGS. 8A-8B, D-Lys^8 -Cs-BSA was subsequently used for coating in the inhibition experiments, except for those McAbs binding selectively to Thr^2 -Cs-BSA (see Table 4 and FIGS. 7A-7C). An example of the binding of 26 Cs derivatives by McAbs belonging to each of the five specificity groups mentioned above is reported in Table 5. The results are expressed as the difference of IC50 (in log10) between the Cs derivatives and Cs. All Cs-derivatives used in this study were selected for having a conserved peptide ring conformation compared with CsA (as determined in NMR or X-ray diffraction).

[2] = tested on: H4 1.3; assay: ELISA inhibition by singly modified Cs-derivatives, McAb H4 1.3; settings: group II; D-Lys^8 -Cs-BSA coating
Protocol: as §1, §2

[3] = tested on: H6 1.5; assay: ELISA inhibition by singly modified Cs-derivatives, McAb H6 1.5; settings: group III; D-Lys^8 -Cs-BSA coating
Protocol: as §1, §2

[4] = tested on: G7 1.1; assay: ELISA inhibition by singly modified Cs-derivatives, McAb G7 1.1; settings: group I; McAb binds selectively to Thr^2 -Cs-BSA coating
Protocol: as §1, §2

[5] = tested on: B11 1.4; assay: ELISA inhibition by singly modified Cs-derivatives, McAb B11 1.4; settings: group IV; D-Lys^8 -Cs-BSA coating
Protocol: as §1, §2

Compound	log10 difference in the concentrations of Cs-derivatives and unmodified Cs required to achieve 50% inhibition in ELISA, McAb C4 2.2 [1]	log10 difference in the concentrations of Cs-derivatives and unmodified Cs required to achieve 50% inhibition in ELISA, McAb H4 1.3 [2]	log10 difference in the concentrations of Cs-derivatives and unmodified Cs required to achieve 50% inhibition in ELISA, McAb H6 1.5 [3]	log10 difference in the concentrations of Cs-derivatives and unmodified Cs required to achieve 50% inhibition in ELISA, McAb G7 1.1 [4]	log10 difference in the concentrations of Cs-derivatives and unmodified Cs required to achieve 50% inhibition in ELISA, McAb B11 1.4 [5]
C/C=C/C[C@@H](C)[C@@H](O)[C@H]1C(=O)N[C@@H](CC)C(=O)N(C)[C@H](C)C(=O)N(C)[C@@H](CC(C)C)C(=O)N[C@@H](C(C)C)C(=O)N(C)[C@@H](CC(C)C)C(=O)N[C@@H](C)C(=O)N[C@H](C)C(=O)N(C)[C@@H](CC(C)C)C(=O)N(C)[C@@H](CC(C)C)C(=O)N(C)[C@@H](C(C)C)C(=O)N1C [Sar^3 D-MeAla]	1.2 log10	1.3 log10	1.4 log10	1.2 log10	< 0.0 log10
C/C=C/C[C@@H](C)[C@@H](O)[C@H]1C(=O)N[C@@H](CC)C(=O)N(C)CC(=O)N(C)[C@@H](CC(C)C)C(=O)N[C@@H](C(C)C)C(=O)N(C)[C@@H](CC(C)C)C(=O)N[C@@H](C)C(=O)N[C@H]([C@H](C)O)C(=O)N(C)[C@@H](CC(C)C)C(=O)N(C)[C@@H](CC(C)C)C(=O)N(C)[C@@H](C(C)C)C(=O)N1C [D-Ala^8 D-Thr]	1.2 log10	0.0 log10	< 0.0 log10	> 2.0 log10	0.4 log10
C/C=C/C[C@@H](C)[C@@H](O)[C@H]1C(=O)N[C@@H](CC)C(=O)N(C)CC(=O)N(C)[C@@H](CC(C)C)C(=O)N[C@@H](C(C)C)C(=O)N(C)[C@@H](Cc2ccccc2)C(=O)N[C@@H](C)C(=O)N[C@H](C)C(=O)N(C)[C@@H](CC(C)C)C(=O)N(C)[C@@H](CC(C)C)C(=O)N(C)[C@@H](C(C)C)C(=O)N1C [MeLeu^6 MePhe]	1.3 log10	1.2 log10	1.7 log10	0.1 log10	0.0 log10
C/C=C/C[C@@H](C)[C@@H](O)[C@H]1C(=O)N[C@@H](CC)C(=O)N(C)CC(=O)N(C)[C@@H](CC(C)C)C(=O)N[C@@H](CCSC)C(=O)N(C)[C@@H](CC(C)C)C(=O)N[C@@H](C)C(=O)N[C@H](C)C(=O)N(C)[C@@H](CC(C)C)C(=O)N(C)[C@@H](CC(C)C)C(=O)N(C)[C@@H](C(C)C)C(=O)N1C [Val^5 Met]	< 0.0 log10	1.5 log10	< 0.0 log10	< 0.0 log10	0.0 log10
C/C=C/C[C@@H](C)[C@@H](O)[C@H]1C(=O)N[C@@H](CC)C(=O)N(C)CC(=O)N(C)[C@@H](CC(C)C)C(=O)N(C)[C@@H](CC(C)C)C(=O)N(C)[C@@H](CC(C)C)C(=O)N[C@@H](C)C(=O)N[C@H](C)C(=O)N(C)[C@@H](CC(C)C)C(=O)N(C)[C@@H](CC(C)C)C(=O)N(C)[C@@H](C(C)C)C(=O)N1C [Val^5 MeLeu]	< 0.0 log10	1.2 log10	0.3 log10	1.0 log10	0.0 log10
C/C=C/C[C@@H](C)[C@@H](O)[C@H]1C(=O)N[C@@H](CC)C(=O)N(C)CC(=O)N(C)[C@@H](CC(C)C)C(=O)N[C@@H](C(C)C)C(=O)N(C)[C@@H](CC(C)C)C(=O)N[C@@H](C)C(=O)N[C@H](C)C(=O)N(C)[C@@H](CC(C)C)C(=O)N(C)[C@@H](Cc2ccccc2)C(=O)N(C)[C@@H](C(C)C)C(=O)N1C [MeAla^10 MePhe]	1.3 log10	0.5 log10	0.2 log10	< 0.0 log10	1.6 log10
C/C=C/C[C@@H](C)[C@@H](O)[C@H]1C(=O)N[C@@H](CC)C(=O)N(C)C(COC(C)=O)C(=O)N(C)[C@@H](CC(C)C)C(=O)N[C@@H](C(C)C)C(=O)N(C)[C@@H](CC(C)C)C(=O)N[C@@H](C)C(=O)N[C@H](C)C(=O)N(C)[C@@H](CC(C)C)C(=O)N(C)[C@@H](CC(C)C)C(=O)N(C)[C@@H](C(C)C)C(=O)N1C (stereo partly drawn) [Sar^3 O-Acetyl-MeSer]	1.5 log10	2.1 log10	2.2 log10	1.2 log10	0.4 log10
C/C=C/C[C@@H](C)[C@@H](O)[C@H]1C(=O)N[C@@H](CC)C(=O)N(C)CC(=O)N(C)[C@@H](C)C(=O)N[C@@H](C(C)C)C(=O)N(C)[C@@H](CC(C)C)C(=O)N[C@@H](C)C(=O)N[C@H](C)C(=O)N(C)[C@@H](CC(C)C)C(=O)N(C)[C@@H](CC(C)C)C(=O)N(C)[C@@H](C(C)C)C(=O)N1C [MeLeu^4 MeAla]	0.1 log10	1.8 log10	1.2 log10	< 0.0 log10	0.3 log10
C/C=C/C[C@@H](C)[C@@H](O)[C@H]1C(=O)N[C@@H](CC)C(=O)N(C)CC(=O)N(C)[C@@H](CC(C)C)C(=O)N[C@@H](C(C)C)C(=O)N(C)[C@@H](CC(C)C)C(=O)N[C@@H](C)C(=O)N[C@H](C)C(=O)N(C)[C@@H](CC(C)C)C(=O)N(C)[C@@H](CC(C)C)C(=O)N(C)[C@@H]([C@H](C)CC)C(=O)N1C [MeVal^11 aMeIle]	0.0 log10	0.3 log10	0.3 log10	0.0 log10	< 0.0 log10
